Data as given in ChEMBL document CHEMBL6109121, “Discovery of Novel Sulfonylurea NLRP3 Inflammasome Inhibitor for the Treatment of Multiple Inflammatory Diseases” (J Med Chem, 2025).
Active and inactive are the calls of the source. No cut-off for these calls is given here.

Legend:
Mus musculus [1] = experiment: (§1) Anti-colitis activity in DSS-induced acute ulcerative colitis male C57BL/6J mouse model assessed as reduction in depletion of goblet cells in colon at 0.2 to 5 mg/kg, po preadministered with DSS for 7 days followed by 3 days of drinking water and measured after 10 days of compound administration by H and E staining based analysis; assay type: functional, organism-based; conditions: dose 0.2-5 mg/kg, time 10.0 day
[2] = Inhibition of NLRP3 inflammasome activation in human THP-1 cells assessed as inhibition of IL-1beta release; assay type: cell-based
[3] = Tmax in male ICR (CD-1) mouse at 20 mg/kg, po by LC-MS/MS analysis; assay type: ADME, organism-based; conditions: in vivo
[4] = target: Nlrp3/Pycard (Mus musculus) (UniProt Q8R4B8+Q9EPB4); experiment: Inhibition of NLRP3-ASC protein-protein interaction in LPS/ATP stimulated male C57BL/6J mouse BMDM cells by co-immunoprecipitation based Western blot analysis; assay type: cell-based
[5] = Half-life in male ICR (CD-1) mouse at 5 mg/kg, iv by LC-MS/MS analysis; assay type: ADME, organism-based; conditions: in vivo
[6] = Drug uptake in gastrointestinal tract of male C57BL/6J mouse at 20 mg/kg, po administered as single dose and measured after 8 hrs by LC-MS/MS analysis; assay type: ADME, organism-based; conditions: in vivo
Mus musculus [7] = experiment: Effect on TNF-alpha level in serum of HFD-fed STZ-induced diabetic kidney disease male C57BL/6J mouse model at 20 mg/kg fed with high fat diet for 4 weeks followed by STZ administration for 5 days and measured 6 weeks post compound administration via gavage by ELISA; assay type: functional, organism-based
Mus musculus [8] = experiment: as §1, with “crypt necrosis” for “depletion of goblet cells”; assay type: functional, organism-based; conditions: dose 0.2-5 mg/kg, time 10.0 day
[9] = Drug uptake in brain of male C57BL/6J mouse at 20 mg/kg, po administered as single dose and measured after 8 hrs by LC-MS/MS analysis; assay type: ADME, organism-based; conditions: in vivo
[10] = AUClast in male ICR (CD-1) mouse at 5 mg/kg, iv by LC-MS/MS analysis; assay type: ADME, organism-based; conditions: in vivo
Mus musculus [11] = experiment: Antidiabetic activity in HFD-fed STZ-induced diabetic kidney disease male C57BL/6J mouse model assessed as improvement of glucose tolerance at 20 mg/kg fed with high fat diet for 4 weeks followed by STZ administration for 5 days further administered with compound via gavage for 6 weeks and measured after 120 mins of glucose administration by OGTT; assay type: functional, organism-based; conditions: time 60600.0 min
Mus musculus [12] = experiment: Effect on TNF-alpha level in serum of LPS/ATP-induced acute peritonitis male C57BL/6J mouse model at 1 to 20 mg/kg, po preadministered with compound for 1 hrs followed by LPS addition for 2 hrs and measured 12 hrs post ATP administration by ELISA; assay type: functional, organism-based; conditions: dose 1-20 mg/kg, time 13.0 hrs
BMDM = experiment: Inhibition of NLRC4 inflammasome activation in LPS/flagellin-stimulated male C57BL/6J mouse BMDM cells assessed as inhibition of IL-1beta secretion pretreated with LPS followed by compound addition for 4 hrs and measured after 2 hrs of Salmonella typhimurium flagellin addition by ELISA; assay type: cell-based; conditions: time 6.0 hrs
Mus musculus [13] = experiment: Anti-colitis activity in DSS-induced acute ulcerative colitis male C57BL/6J mouse model assessed as improvement in stool consistency at 0.2 to 5 mg/kg, po preadministered with DSS for 7 days followed by 3 days of drinking water and measured after 10 days of compound administration; assay type: functional, organism-based; conditions: dose 0.2-5 mg/kg, time 10.0 day
Mus musculus [14] = experiment: Antidiabetic activity in HFD-fed STZ-induced diabetic kidney disease male C57BL/6J mouse model assessed as reduction in tubular basement membrane thickening in kidney at 20 mg/kg fed with high fat diet for 4 weeks followed by STZ administration for 5 days and measured 6 weeks post compound administration via gavage by histological analysis; assay type: functional, organism-based

Sequence of Nlrp3/Pycard (Mus musculus) (Q8R4B8 whole entry, looked up): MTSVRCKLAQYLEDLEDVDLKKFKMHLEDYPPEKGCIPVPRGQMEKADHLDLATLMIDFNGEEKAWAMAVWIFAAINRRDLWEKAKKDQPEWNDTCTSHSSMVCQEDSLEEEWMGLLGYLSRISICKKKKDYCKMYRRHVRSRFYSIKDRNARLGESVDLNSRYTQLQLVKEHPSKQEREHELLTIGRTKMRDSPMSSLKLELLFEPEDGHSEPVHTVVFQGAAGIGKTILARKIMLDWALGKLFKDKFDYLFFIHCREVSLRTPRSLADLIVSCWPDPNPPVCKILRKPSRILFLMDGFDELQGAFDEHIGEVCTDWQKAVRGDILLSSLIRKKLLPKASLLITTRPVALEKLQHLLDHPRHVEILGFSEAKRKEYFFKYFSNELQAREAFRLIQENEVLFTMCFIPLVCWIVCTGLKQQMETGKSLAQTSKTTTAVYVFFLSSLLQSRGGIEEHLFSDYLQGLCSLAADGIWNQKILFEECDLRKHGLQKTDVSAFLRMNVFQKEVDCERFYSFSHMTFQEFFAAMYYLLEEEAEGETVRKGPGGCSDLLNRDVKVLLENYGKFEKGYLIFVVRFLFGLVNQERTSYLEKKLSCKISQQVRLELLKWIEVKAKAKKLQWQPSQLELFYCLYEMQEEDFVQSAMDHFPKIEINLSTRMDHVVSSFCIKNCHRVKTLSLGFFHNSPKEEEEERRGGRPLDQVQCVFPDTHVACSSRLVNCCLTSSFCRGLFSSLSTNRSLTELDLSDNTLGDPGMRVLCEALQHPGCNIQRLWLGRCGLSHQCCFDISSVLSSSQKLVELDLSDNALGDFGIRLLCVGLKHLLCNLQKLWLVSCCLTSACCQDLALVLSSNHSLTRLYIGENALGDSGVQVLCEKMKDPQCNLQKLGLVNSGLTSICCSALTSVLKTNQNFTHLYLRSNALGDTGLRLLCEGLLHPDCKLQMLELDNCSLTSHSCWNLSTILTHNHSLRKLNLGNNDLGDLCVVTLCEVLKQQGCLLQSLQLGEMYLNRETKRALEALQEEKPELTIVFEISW
Sequence of Nlrp3/Pycard (Mus musculus) (Q9EPB4 whole entry, looked up): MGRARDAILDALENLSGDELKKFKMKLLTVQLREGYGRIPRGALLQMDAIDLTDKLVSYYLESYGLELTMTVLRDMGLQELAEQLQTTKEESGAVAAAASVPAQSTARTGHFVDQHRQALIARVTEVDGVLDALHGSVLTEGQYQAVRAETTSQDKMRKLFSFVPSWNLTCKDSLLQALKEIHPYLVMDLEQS

CN1CCC(N(C)S(=O)(=O)NC(=O)Nc2c3c(cc4c2CCC4)CCC3)CC1
Activity (Mus musculus [1]): Active
IC50 [2]: 23 nM
Tmax [3]: 0.33 h
inhibition [4]: Active
half-life [5]: 3.63 h
Drug uptake [6]: Active
Activity (Mus musculus [7]): inactive
Activity (Mus musculus [8]): Active
Drug uptake [9]: Not_active
AUC(0-t) [10]: 14500 ng·h/mL
Activity (Mus musculus [11]): inactive
Activity (Mus musculus [12]): inactive
inhibition (BMDM): inactive
Activity (Mus musculus [13]): Active
Activity (Mus musculus [14]): Active
